Experimental data: ChEMBL document CHEMBL1145140, “Inhibitors of inosine monophosphate dehydrogenase: SARs about the N-[3-Methoxy-4-(5-oxazolyl)phenyl moiety” (Bioorg Med Chem Lett, 2003)

Columns and labels:
CCRF-CEM = assay: Inhibition of CEM cell proliferation.; assay type: functional, cell-based; settings: Homo sapiens
[1] = target: Inosine-5'-monophosphate dehydrogenase 2 (Homo sapiens, UniProt P12268); assay: Inhibition of inosine-5'-monophosphate dehydrogenase 2.; assay type: single protein

CC(C)(C)NC(=O)C(=O)Nc1ccc(-c2cnco2)c(Cl)c1
IC50 (CCRF-CEM): > 10000 nM

CC(C)(C)NC(=O)C(=O)Nc1ccc(-c2cnco2)c(Br)c1
IC50 (CCRF-CEM): 5500 nM

COc1cc(NC(=O)C(=O)NC(C)(C)C)ccc1-c1cnco1
IC50 (CCRF-CEM): 2300 nM

CC(C)(C)NC(=O)C(=O)Nc1ccc(-c2cnco2)cc1
IC50 [1]: > 5000 nM

Cc1ncoc1-c1ccc(NC(=O)C(=O)NC(C)(C)C)cc1
IC50 [1]: > 5000 nM

Cc1cccc(NC(=O)Nc2ccc(-c3cnco3)c(Cl)c2)c1
IC50 (CCRF-CEM): > 10000 nM | IC50 [1]: 43 nM

CN(C(=O)CN1CCOCC1)c1ccccc1-c1cnc(Nc2ccc(-c3cnco3)c(Cl)c2)o1
IC50 (CCRF-CEM): 4300 nM | IC50 [1]: 47 nM

c1ccc(-c2cnc(Nc3ccc(-c4cocn4)cc3)o2)cc1
IC50 [1]: > 5000 nM

Cc1cc(Nc2ncc(-c3ccccc3N(C)C(=O)CO)o2)ccc1-c1cnco1
IC50 (CCRF-CEM): 4500 nM | IC50 [1]: 100 nM

Cc1cccc(NC(=O)Nc2ccc(-c3ocnc3C)cc2)c1
IC50 [1]: 500 nM

COc1cc(Nc2ncc(-c3ccccc3N(C)C(=O)CN3CCOCC3)o2)ccc1-c1cocn1
IC50 (CCRF-CEM): 9900 nM | IC50 [1]: 91 nM

CNc1nc(Nc2ccc(-c3cocn3)c(OC)c2)nc(-c2ccccc2)n1
IC50 [1]: 1600 nM

COc1cc(Nc2ncc(-c3ccccc3N(C)C(=O)CO)o2)ccc1-c1cnco1
IC50 (CCRF-CEM): 1400 nM | IC50 [1]: 21 nM

COc1c(-c2cnco2)ccc(Nc2ncc(-c3ccccc3)o2)c1Cl
IC50 [1]: > 5000 nM

CN(C(=O)CN1CCOCC1)c1ccccc1-c1cnc(Nc2ccc(-c3cnco3)c(Br)c2)o1
IC50 (CCRF-CEM): 3200 nM | IC50 [1]: 28 nM

CNc1nc(Nc2ccc(-c3cnco3)c(OC)c2)nc(-c2ccccc2)n1
IC50 (CCRF-CEM): 3700 nM

COc1cc(NC(=NC#N)Nc2ccccc2)ccc1-c1cnco1
IC50 [1]: 240 nM

Cc1cccc(NC(=O)Nc2ccc(-c3cnco3)cc2)c1
IC50 (CCRF-CEM): > 10000 nM | IC50 [1]: 640 nM

COc1cc(Nc2ncc(-c3ccccc3)o2)c(F)cc1-c1cnco1
IC50 [1]: > 5000 nM

CNc1nc(Nc2ccc(-c3cnco3)cc2)nc(-c2ccccc2)n1
IC50 [1]: > 5000 nM

COc1cc(Nc2ncc(-c3ccccc3)o2)ccc1-n1cncn1
IC50 (CCRF-CEM): 8300 nM | IC50 [1]: 410 nM

Cc1cc(Nc2ncc(-c3ccccc3)o2)ccc1-c1cocn1
IC50 [1]: > 5000 nM

CCc1cc(Nc2ncc(-c3ccccc3N(C)C(=O)CO)o2)ccc1-c1cnco1
IC50 (CCRF-CEM): 4500 nM | IC50 [1]: 100 nM

Cc1cc(Nc2ncc(-c3ccccc3N(C)C(=O)CN3CCOCC3)o2)ccc1-c1cnco1
IC50 (CCRF-CEM): 3000 nM | IC50 [1]: 45 nM

Clc1cc(Nc2ncc(-c3ccccc3)o2)ccc1-c1cocn1
IC50 [1]: > 5000 nM

CCOc1cc(Nc2ncc(-c3ccccc3)o2)ccc1-c1cnco1
IC50 [1]: > 10000 nM

CNc1nc(Nc2ccc(-c3ocnc3C)cc2)nc(-c2ccccc2)n1
IC50 [1]: > 5000 nM

CCc1cc(Nc2ncc(-c3ccccc3N(C)C(=O)CN3CCOCC3)o2)ccc1-c1cnco1
IC50 (CCRF-CEM): > 10000 nM | IC50 [1]: 310 nM

CN(C(=O)CO)c1ccccc1-c1cnc(Nc2ccc(-c3cnco3)c(Br)c2)o1
IC50 (CCRF-CEM): 2400 nM | IC50 [1]: 21 nM

Oc1cc(Nc2ncc(-c3ccccc3)o2)ccc1-c1cnco1
IC50 [1]: > 1600 nM

COc1cc(Nc2ncc(-c3ccccc3N(C)C(=O)CO)o2)ccc1-c1cocn1
IC50 (CCRF-CEM): 3700 nM | IC50 [1]: 41 nM

COc1cc(Nc2ncc(-c3ccccc3)o2)c(Cl)cc1-c1cnco1
IC50 [1]: > 1600 nM

Clc1cc(Nc2ncc(-c3ccccc3)o2)ccc1-c1cnco1
IC50 (CCRF-CEM): > 10000 nM | IC50 [1]: 88 nM

CN(C(=O)CO)c1ccccc1-c1cnc(Nc2ccc(-c3cnco3)c(Cl)c2)o1
IC50 (CCRF-CEM): 3600 nM | IC50 [1]: 41 nM

COc1cc(Nc2ncc(-c3ccccc3)o2)ccc1-c1cnc(C)o1
IC50 [1]: > 2000 nM

Cc1nc(C)c(-c2ccc(Nc3ncc(-c4ccccc4)o3)cc2)o1
IC50 [1]: > 2000 nM

COc1cc(Nc2ncc(-c3ccccc3)o2)ccc1-c1cocn1
IC50 (CCRF-CEM): > 10000 nM | IC50 [1]: > 57 nM

COc1cc(Nc2ncc(-c3ccccc3)o2)ccc1-c1ocnc1C
IC50 [1]: > 5000 nM

COc1cc(Nc2ncc(-c3ccccc3)o2)ccc1-c1cnco1
IC50 (CCRF-CEM): > 10000 nM

Cc1ncoc1-c1ccc(NC(=O)/C=C/c2ccco2)cc1
IC50 [1]: > 2000 nM

Cc1ncoc1-c1ccc(Nc2ncc(-c3ccccc3)o2)cc1
IC50 [1]: > 5000 nM

COc1cc(NC(=O)Nc2cccc(C)c2)ccc1-c1cnco1
IC50 (CCRF-CEM): 2300 nM

c1ccc(-c2cnc(Nc3ccc(-c4cnco4)cc3)o2)cc1
IC50 [1]: > 5000 nM

COc1cc(Nc2ncc(-c3ccccc3)o2)ccc1-c1ncco1
IC50 [1]: 190 nM

COc1cc2nc(-c3ccccc3)cc(O)c2cc1-c1cocn1
IC50 (CCRF-CEM): 3500 nM | IC50 [1]: 210 nM

CNc1nc(Nc2ccc(-c3cnco3)c(Cl)c2)nc(-c2ccccc2)n1
IC50 [1]: > 340 nM
